# Test results published in paper PMC9760430, “A stapled chromogranin A-derived peptide homes in on tumors that express αvβ6 or αvβ8 integrins” (International Journal of Biological Sciences, 2023).
# Peptide text beside a SMILES is read from it. * marks the point of attachment. X1 = CC1(C)C(/C=C/C2=C(Oc3ccc(S(=O)(=O)O)cc3)C(=C\C=C3/N(CCCCCC(=O)NCCN4C(=O)CC(*)C4=O)c4ccc(S(=O)(=O)O)cc4C3(C)C)/CCC2)=[N+](CCCCS(=O)(=O)O)c2ccc(S(=O)(=O)[O-])cc21
# Target: T1, murine αvβ8 (Mus musculus, UniProt P43406+Q0VBD0)
# T1 construct: purchased Bio-Techne
# T1 sequence (P43406 31-988 limits assumed): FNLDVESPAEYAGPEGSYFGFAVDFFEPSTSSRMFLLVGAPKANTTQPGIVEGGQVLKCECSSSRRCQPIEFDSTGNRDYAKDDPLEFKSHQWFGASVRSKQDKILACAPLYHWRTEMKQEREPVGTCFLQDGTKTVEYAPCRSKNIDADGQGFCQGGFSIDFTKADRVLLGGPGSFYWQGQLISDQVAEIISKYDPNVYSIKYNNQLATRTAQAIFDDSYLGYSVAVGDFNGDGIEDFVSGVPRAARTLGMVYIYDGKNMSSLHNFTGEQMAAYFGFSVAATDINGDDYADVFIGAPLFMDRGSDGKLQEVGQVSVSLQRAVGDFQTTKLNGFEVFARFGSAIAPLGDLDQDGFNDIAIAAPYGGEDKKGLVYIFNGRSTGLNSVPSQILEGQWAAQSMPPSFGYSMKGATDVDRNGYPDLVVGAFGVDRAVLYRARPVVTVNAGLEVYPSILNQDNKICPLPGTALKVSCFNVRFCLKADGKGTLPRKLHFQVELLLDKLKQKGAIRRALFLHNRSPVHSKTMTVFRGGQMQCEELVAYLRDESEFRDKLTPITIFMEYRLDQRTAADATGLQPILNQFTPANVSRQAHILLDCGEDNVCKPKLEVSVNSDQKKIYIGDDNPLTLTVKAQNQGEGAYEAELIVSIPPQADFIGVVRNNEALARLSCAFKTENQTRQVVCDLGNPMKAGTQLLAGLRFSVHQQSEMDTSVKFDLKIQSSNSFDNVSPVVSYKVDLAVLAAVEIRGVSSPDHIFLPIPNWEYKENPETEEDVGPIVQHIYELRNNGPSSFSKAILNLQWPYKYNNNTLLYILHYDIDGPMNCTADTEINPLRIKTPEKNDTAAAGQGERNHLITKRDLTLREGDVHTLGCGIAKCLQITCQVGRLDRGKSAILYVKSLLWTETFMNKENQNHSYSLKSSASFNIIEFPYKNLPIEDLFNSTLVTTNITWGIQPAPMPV
# T1 sequence (Q0VBD0 43-682 limits assumed): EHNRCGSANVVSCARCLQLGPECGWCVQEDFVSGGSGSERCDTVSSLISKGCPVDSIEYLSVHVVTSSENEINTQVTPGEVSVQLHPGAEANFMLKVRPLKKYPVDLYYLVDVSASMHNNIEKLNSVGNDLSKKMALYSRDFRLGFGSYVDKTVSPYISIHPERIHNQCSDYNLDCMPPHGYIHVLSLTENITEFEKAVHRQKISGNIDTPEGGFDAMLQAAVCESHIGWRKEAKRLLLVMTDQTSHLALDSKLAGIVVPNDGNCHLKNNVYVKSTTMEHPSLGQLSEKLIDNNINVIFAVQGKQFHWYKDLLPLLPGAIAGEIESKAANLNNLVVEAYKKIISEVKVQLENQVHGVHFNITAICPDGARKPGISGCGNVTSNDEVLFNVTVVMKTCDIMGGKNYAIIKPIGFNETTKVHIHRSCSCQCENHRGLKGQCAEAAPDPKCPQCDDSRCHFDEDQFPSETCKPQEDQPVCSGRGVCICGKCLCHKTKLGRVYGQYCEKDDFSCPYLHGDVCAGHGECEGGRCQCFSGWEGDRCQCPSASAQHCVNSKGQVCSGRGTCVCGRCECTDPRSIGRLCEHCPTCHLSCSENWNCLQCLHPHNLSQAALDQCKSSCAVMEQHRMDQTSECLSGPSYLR
# Assay: direct integrin binding assay of peptide-IRDye conjugates, murine αvβ8-coated plates
# Conditions: plates coated with recombinant murine αvβ8; conjugate 0.01-100 nM, 1 h; bound NIR fluorescence; mean ± SE, n = 3 experiments
# Description: The affinity of peptide-IRDye conjugates for αvβ6 and αvβ8 integrins was determined by a direct binding assay using microtiter plates coated with αvβ6 or αvβ8 (Bio-Techne). After 1 h of incubation, the plates were washed; bound fluorescence was quantified by scanning the plates with an Odyssey CLx near-infrared fluorescence imaging system (LI-COR).
# A control conjugate with a cysteine in place of the peptide was also prepared in parallel. […]
# The simplified molecular-input line-entry system (SMILES) of 5a-, 2a-, Cys- and 5a-Scr- […]
# The concentration of each conjugate was quantified by spectrophotometric analysis at 774 nm (molar absorption coefficient, 240,000 M-1, cm-1) (Figure S3B). The final yield of 5a-IRDye […]
# Binding of peptide-IRDye conjugates to avb6 and avb8 integrin […]
# conjugates were added to the microtiterplates and incubated at room temperature for 1 h (see Experimental Section). After washing, bound fluorescence was measured using an Odyssey CLx (LI-COR) scanner. Representative images of the scanned plates and quantification of binding are shown. […]
row,EC50,SMILES
1,> 100 nM,CC[C@H](C)[C@H](NC(=O)[C@H](CCCNC(=N)N)NC(=O)[C@H](CCC(=O)O)NC(=O)[C@H](CCC(=O)O)NC(=O)CNC(=O)[C@H](CCCNC(=N)N)NC(=O)[C@H](CC(C)C)NC(=O)[C@@H](NC(=O)[C@H](CCC(=O)O)NC(=O)[C@H](Cc1ccccc1)NC(=O)[C@@H](N)CSC1CC(=O)N(CCNC(=O)CCCCCN2/C(=C\C=C3\CCCC(/C=C/C4=[N+](CCCCS(=O)(=O)O)c5ccc(S(=O)(=O)[O-])cc5C4(C)C)=C3Oc3ccc(S(=O)(=O)O)cc3)C(C)(C)c3cc(S(=O)(=O)O)ccc32)C1=O)[C@@H](C)O)C(=O)N[C@@H](CC(C)C)C(=O)N[C@@H](CO)C(=O)N[C@H](C(=O)N[C@@H](CC(C)C)C(=O)N[C@@H](CCCNC(=N)N)C(=O)N[C@@H](Cc1c[nH]cn1)C(=O)N[C@@H](CCC(N)=O)C(=O)N[C@@H](CC(N)=O)C(=O)N[C@@H](CC(C)C)C(=O)N[C@@H](CC(C)C)C(=O)N[C@@H](CCCCN)C(=O)N[C@@H](CCC(=O)O)C(=O)N[C@@H](CC(C)C)C(=O)N[C@@H](CCC(N)=O)C(=O)N[C@@H](CC(=O)O)C(N)=O)[C@@H](C)CC (some centres unmarked) [2a-IRDye] (H-C(X1)FETLRGEERILSILRHQNLLKELQD-NH2)
2,> 100 nM,CC1(C)C(/C=C/C2=C(Oc3ccc(S(=O)(=O)O)cc3)C(=C\C=C3/N(CCCCCC(=O)NCCN4C(=O)CC(SC[C@H](N)C(=O)O)C4=O)c4ccc(S(=O)(=O)O)cc4C3(C)C)/CCC2)=[N+](CCCCS(=O)(=O)O)c2ccc(S(=O)(=O)[O-])cc21 (some centres unmarked) [Cys-IRDye]
